Source: patent US20050107289A1, “Anti-microbial peptides and compositions” (priority 2001, published 2005)
Non-standard residues stand in square brackets, D forms with d. Residues, ends and D or L forms follow the SMILES beside them. NMeL = CN[C@@H](CC(C)C)C(=O)O

Key:
[1] = tested on: S. aureus (MRSA) ATCC 33591; type: cell-based, Staphylococcus aureus; details: for MRSA MIC / S. aureus (MRSA) MIC: ATCC 33591; for MRSA (in vitro activity): Table 9, media a: anti-microbial media-3 (AM-3)
In short: (§1)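 Broth macro- or microdilution MIC per NCCLS M7-A4. Peptides were serially 2-fold diluted in 5% DMSO/9% aqueous sucrose, about 400–2 μg/ml (dilution-series concentrations). Overnight cultures were diluted 4000-fold to an inoculum of about 2.5×10^5 cfu/ml.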

E. coli JM109(DE3) = type: cell-based, Escherichia coli; details: JM109
Method: (§2) The antimicrobial activity of the peptides was determined using a broth dilution assay essentially as descried in the guidelines of the National Committee for […] (NCCLS) [National Committee for Clinical Laboratory Standards. Methods for dilution antimicrobial susceptibility tests for bacteria that grow aerobically. Fourth edition. Approved Standard (1997). Document M7-A4. […] The microdilution method has the advantages of requiring less amount of peptide for each assay and the possibility of multiple simultaneous inoculations and was used in most studies. Several of the strains of bacteria tested are further described in Table 3.
(§3) Preparation of peptide solutions. Stock peptide solutions were prepared in 5% DMSO in aq. sucrose (9%). Determination of peptide concentrations was done by quantitative HPLC analysis using known concentrations of internal standards and/or by measuring UV absorption of tryptophane-containing peptide solutions in H2O (λ=280 εTrp: 5690). Serial 2-fold dilutions were made in the above DMSO/aq. sucrose (9%) mixture with concentrations ranging approximately 400-2 μg/ml and aliquots were dispensed in test tubes (100 μl) for the macrodilution test or in microtiter plates (20 μl) for the microdilution assays.
(§4) Inoculum preparation. Overnight cultures of different microorganisms grown in suitable media were diluted 4000 times to an approximate inoculum size of 2.5×10^5 cfu/ml.
(§5) Macrodilution method. Macrodilution methods were performed using procedures similar to those described in the National Committee for Clinical Laboratory Standards. Methods for dilution antimicrobial susceptibility tests for bacteria that grow aerobically. Fourth edition. Approved Standard (1997). Document M7-A4. (NCCLS,Villanova, Pa., 1997). Two ml aliquots of the above inoculum were dispensed to test tubes containing different peptide solutions.
(§6) Microdilution method. Microdilution methods were performed using procedures similar to those described in the National Committee for Clinical Laboratory Standards. Methods for dilution antimicrobial susceptibility tests for bacteria that grow aerobically. Fourth edition. Approved Standard (1997). Document M7-A4.

murine red blood cells = experiment: Red blood cell hemolysis; type: cell-based, mouse; details: for Hemolysis HD50: red cells of murine
In short: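 Washed murine erythrocytes at 5% in saline with 10% FBS were exposed to serial peptide dilutions for 30 min at 37° C. Supernatant absorbance at 560 nm was read, with saline as 0% and 1% Triton X-100 as 100% hemolysis.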

[2] = tested on: vancomycin-resistant Enterococus faecalis (VRE)(ATCC 51575); type: cell-based, Enterococcus faecalis; design: key to VRE (in vitro activity): peptide concentration in μg/ml (broth dilution assay); details: for VRE MIC: ATCC 51575; for VRE (in vitro activity): Table 9, media a: AM-3
In short: as §1

[3] = tested on: Bacillus cereus ATCC 11778; type: cell-based
Method: as §2, §3, §4, §5, §6

[4] = tested on: Streptococcus pneumoniae (ATCC 6301); type: cell-based
Method: as §2, §3, §4, §5, §6

Row | Structure (SMILES) | MRSA MIC [1] | S. aureus (MRSA) MIC [1] | E. coli MIC (E. coli JM109(DE3)) | VRE MIC [2] | B. cerius MIC [3] | S. pneum. MIC [4] | MRSA (in vitro activity) [1] | RBC Hemolysis (HD50) (murine red blood cells) | VRE (in vitro activity) [2] | Hemolysis HD50 (murine red blood cells)
1 | CC(C)C[C@H]1NC(=O)[C@H](Cc2c[nH]c3ccccc23)NC(=O)[C@@H](Cc2c[nH]cn2)NC(=O)[C@H](Cc2c[nH]cn2)NC(=O)[C@@H](CO)NC(=O)[C@H](Cc2c[nH]c3ccccc23)NC(=O)[C@@H](CC(C)C)NC(=O)[C@H](Cc2c[nH]c3ccccc23)NC1=O [SEQ ID NO:15, SHHWLWLW] (cyclo([dS]H[dH]W[dL]W[dL]W)) | 30 µg/mL | 20 µg/mL | 100 µg/mL | 50 µg/mL | 11 µg/mL | 40 µg/mL | 30 | 20 | 50 | 
2 | CC(C)C[C@H]1NC(=O)[C@H](Cc2c[nH]c3ccccc23)NC(=O)[C@@H](Cc2c[nH]cn2)NC(=O)[C@H](CCCCN)NC(=O)[C@@H](Cc2c[nH]cn2)NC(=O)[C@H](Cc2c[nH]c3ccccc23)NC(=O)[C@@H](CC(C)C)NC(=O)[C@H](Cc2c[nH]c3ccccc23)NC1=O [SEQ ID NO:21, cyclo-(D-His-Lys-D-His-Trp-D-Leu-Trp-D-Leu-Trp)] (cyclo(K[dH]W[dL]W[dL]W[dH])) | 12 µg/mL | 12 µg/mL | 15 µg/mL | 16 µg/mL | 4 µg/mL | 19 µg/mL | 12 | 25 | 16 | 
3 | CC(C)C[C@H]1NC(=O)[C@H](Cc2c[nH]c3ccccc23)NC(=O)[C@@H](CCCCN)NC(=O)[C@H](CCC(N)=O)NC(=O)[C@@H](CCCCN)NC(=O)[C@H](Cc2c[nH]c3ccccc23)NC(=O)[C@@H](CC(C)C)NC(=O)[C@H](Cc2c[nH]c3ccccc23)NC1=O [SEQ ID NO:11, cyclo-[Gln-D-Lys-(Trp-D-Leu)2-Trp-D-Lys-]] (cyclo([dK]Q[dK]W[dL]W[dL]W)) | 20 µg/mL | 45 µg/mL | 100 µg/mL | 20 µg/mL | 7 µg/mL | 8 µg/mL |  |  |  | 
4 | CC(C)C[C@H]1NC(=O)[C@H](Cc2c[nH]c3ccccc23)NC(=O)[C@@H](CCCCN)NC(=O)[C@H](Cc2c[nH]cn2)NC(=O)[C@@H](CCCCN)NC(=O)[C@H](Cc2c[nH]c3ccccc23)NC(=O)[C@@H](CC(C)C)NC(=O)[C@H](Cc2c[nH]c3ccccc23)NC1=O [SEQ ID NO:22, KHKWLWLW] (cyclo([dK]H[dK]W[dL]W[dL]W)) | 10 µg/mL | 10 µg/mL | 80 µg/mL | 10 µg/mL | 8 µg/mL | 8 µg/mL | 10 | 30 | 10 | 
5 | CC(C)C[C@@H]1NC(=O)[C@@H](Cc2c[nH]c3ccccc23)NC(=O)[C@H](CCCNC(=N)N)NC(=O)[C@@H](CCCNC(=N)N)NC(=O)[C@H](CCCNC(=N)N)NC(=O)[C@@H](Cc2c[nH]c3ccccc23)NC(=O)[C@H](CC(C)C)NC(=O)[C@@H](Cc2c[nH]c3ccccc23)NC1=O [SEQ ID NO:133, [RRRWLWLW]] (cyclo(R[dR]R[dW]L[dW]L[dW])) | 10 µg/mL |  | 35 µg/mL |  | 10 µg/mL | 5 µg/mL |  |  |  | 35 µg/mL
6 | CC(C)C[C@H]1NC(=O)[C@H](Cc2c[nH]c3ccccc23)NC(=O)[C@@H](Cc2c[nH]cn2)NC(=O)[C@H](CCCCN)NC(=O)[C@@H](CO)NC(=O)[C@H](Cc2c[nH]c3ccccc23)NC(=O)[C@@H](CC(C)C)NC(=O)[C@H](Cc2c[nH]c3ccccc23)NC1=O [SEQ ID NO:14, cyclo-(D-Ser-Lys-D-His-Trp-D-Leu-Trp-D-Leu-Trp)] (cyclo(K[dH]W[dL]W[dL]W[dS])) | 15 µg/mL | 15 µg/mL | 100 µg/mL | 30 µg/mL | 6 µg/mL |  | 15 | 20 | 30 | 

Now from value to compound, other results behind:

Row | MRSA MIC [1] | S. aureus (MRSA) MIC [1] | E. coli MIC (E. coli JM109(DE3)) | VRE MIC [2] | B. cerius MIC [3] | S. pneum. MIC [4] | Structure (SMILES) | MRSA (in vitro activity) [1] | RBC Hemolysis (HD50) (murine red blood cells) | VRE (in vitro activity) [2] | Hemolysis HD50 (murine red blood cells)
7 | 20 µg/mL | 10 µg/mL | 100 µg/mL | 20 µg/mL | > 30 µg/mL | 30 µg/mL | CC(C)C[C@H]1NC(=O)[C@H](Cc2c[nH]c3ccccc23)NC(=O)[C@@H](CO)NC(=O)[C@H](CCCCN)NC(=O)[C@@H](CO)NC(=O)[C@H](Cc2c[nH]c3ccccc23)NC(=O)[C@@H](CC(C)C)NC(=O)[C@H](Cc2c[nH]c3ccccc23)NC1=O [SEQ ID NO:5, cyclo-(D-Ser-Lys-D-Ser-Trp-D-Leu-Trp-D-Leu-Trp)] (cyclo(K[dS]W[dL]W[dL]W[dS])) | 20 | 30 | 20 | 
8 | 12 µg/mL |  | 12 µg/mL | 50 µg/mL | 13 µg/mL | 12 µg/mL | CC(C)C[C@H]1NC(=O)[C@H](Cc2c[nH]c3ccccc23)NC(=O)[C@@H](CCCCN)NC(=O)[C@H](CCCNC(=N)N)NC(=O)[C@@H](CCCNC(=N)N)NC(=O)[C@H](Cc2c[nH]c3ccccc23)NC(=O)[C@@H](CC(C)C)NC(=O)[C@H](CO)NC1=O [SEQ ID NO:112, [RRKWLSLW]] (cyclo([dR]R[dK]W[dL]S[dL]W)) | 12 | 100 | 50 | 100 µg/mL
9 | 100 µg/mL | 80 µg/mL | 20 µg/mL | 100 µg/mL | 75 µg/mL | 80 µg/mL | CC(=O)N[C@H](CCCCN)C(=O)N[C@@H](CCCCN)C(=O)N[C@H](CCCCN)C(=O)N[C@@H](Cc1c[nH]c2ccccc12)C(=O)N[C@H](CC(C)C)C(=O)N[C@@H](Cc1c[nH]c2ccccc12)C(=O)N[C@H](CC(C)C)C(=O)N[C@H](Cc1c[nH]c2ccccc12)C(N)=O [SEQ ID NO:25, Ac-KKKWLWLW-CONH2] (Ac-[dK]K[dK]W[dL]W[dL][dW]-NH2) |  |  |  | 100 µg/mL
10 | 40 µg/mL |  | 12 µg/mL | 40 µg/mL | 80 µg/mL | 80 µg/mL | CC(C)C[C@@H]1NC(=O)[C@@H](Cc2c[nH]c3ccccc23)NC(=O)[C@H](CCCCN)NC(=O)[C@@H](CCCNC(=N)N)NC(=O)[C@H](CCCCN)NC(=O)[C@@H](Cc2c[nH]c3ccccc23)NC(=O)[C@H](CC(C)C)NC(=O)[C@@H](Cc2c[nH]cn2)NC1=O [SEQ ID NO:101, [KRKWLHLW]] (cyclo(K[dR]K[dW]L[dH]L[dW])) | 40 | 100 | 40 | 100 µg/mL
11 | 5 µg/mL |  | 5 µg/mL | 30 µg/mL | 5 µg/mL | 10 µg/mL | CC(C)C[C@H]1C(=O)N[C@H](Cc2c[nH]c3ccccc23)C(=O)N(C)[C@@H](CC(C)C)C(=O)N[C@H](Cc2c[nH]c3ccccc23)C(=O)N[C@@H](CCCNC(=N)N)C(=O)N[C@H](CCCNC(=N)N)C(=O)N[C@@H](CCCCN)C(=O)N[C@H](Cc2c[nH]c3ccccc23)C(=O)N1C [SEQ ID NO:139, c[RRKW^MeLW^MeLW]] (cyclo(R[dR]K[dW][NMeL][dW][NMeL][dW])) |  |  |  | 100 µg/mL
12 | 40 µg/mL |  | 5 µg/mL | 100 µg/mL | 24 µg/mL | 12 µg/mL | CC(C)C[C@H]1NC(=O)[C@H](Cc2c[nH]c3ccccc23)NC(=O)[C@@H](CCCNC(=N)N)NC(=O)[C@H](CCCNC(=N)N)NC(=O)[C@@H](CC(C)C)NC(=O)[C@H](Cc2c[nH]c3ccccc23)NC1=O [SEQ ID NO:115, [RRWLWL]] (cyclo(R[dR]W[dL]W[dL])) | 40 | 90 | 100 | 90 µg/mL
